Test results from BindingDB's records for doi:10.1016/S0960-894X(03)00095-7 (Abbott Laboratories, 2003).

Columns and labels:
[1] = biological target: Protein farnesyltransferase subunit beta/geranylgeranyltransferase type-1 subunit alpha (Bos taurus, UniProt P29702+P49355); assay: FTase Activity Assay; details: pH 7.5; 37 °C
Protocol: The in vitro activity of compounds inhibiting FTase was determined by measuring the transfer of [3H]-FPP to substrate Ha-Ras-CVLS. The incorporated radioactivity was quantified by scintillation counting.

[2] = biological target: Geranylgeranyl transferase type-1 subunit beta/Protein farnesyltransferase/geranylgeranyltransferase type-1 subunit alpha (Bos taurus, UniProt P29702+Q5EAD5); assay: GGTase-I Activity Assay; details: pH 7.5; 37 °C
Protocol: The in vitro activity of compounds inhibiting GGTase-1 was determined by measuring the transfer of [3H]-geranylgeranylpyrophosphate to substrate Ha-Ras-CVLL. The incorporated radioactivity was quantified by scintillation counting.

Compound: CN(Cc1ccc(C#N)cc1)[C@H](Cc1cncn1C)C(=O)N1CCC(C#N)=C(c2cccc3ccccc23)C1 [1-[(2R)-2-{[(4-cyanophenyl)methyl](methyl)amino}-3-(1-methyl-1H-imidazol-5-yl)propanoyl]-5-(naphthalen-1-yl)-1,2,3,6-tetrahydropyridine-4-carbonitrile]
- IC50 [1]: 0.92 nM
- IC50 [2]: 1600 nM
